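Test compounds were applied to cells in 96-well plates for 48 hours at 5 doses. GI50 = concentration required for 50% inhibition of growth.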 Activity calls are given as the source filed them. No stated cut-off is given here; in the data, active = GI50 up to about 1.1 µM and inactive = higher.
Experiments:
Test in all cases: NCI-60 cell line screen, 48 h
SF-295 = tested on: SF-295
U-251 = tested on: U-251
TK-10 = tested on: TK-10
PC-3 = tested on: PC-3
SK-MEL-2 = tested on: SK-MEL-2
UACC-62 = tested on: UACC-62
HCT-116 = tested on: HCT-116
UO-31 = tested on: UO-31
OVCAR-8 = tested on: OVCAR-8
CCRF-CEM = tested on: CCRF-CEM
HOP-62 = tested on: HOP-62
Hs-578T = tested on: Hs-578T
MOLT-4 = tested on: MOLT-4
SN12C = tested on: SN12C
HT-29 = tested on: HT-29
SK-OV-3 = tested on: SK-OV-3
HOP-92 = tested on: HOP-92
M14 = tested on: M14
NCI-H460 = tested on: NCI-H460
SK-MEL-28 = tested on: SK-MEL-28
HCT-15 = tested on: HCT-15
Malme-3M = tested on: Malme-3M
SW-620 = tested on: SW-620
MDA-MB-231 = tested on: MDA-MB-231
K562 = tested on: K562
NCI-H522 = tested on: NCI-H522
SNB-75 = tested on: SNB-75
MCF7 = tested on: MCF7
OVCAR-3 = tested on: OVCAR-3
A549 = tested on: A549
SNB-19 = tested on: SNB-19
NCI-H226 = tested on: NCI-H226
ACHN = tested on: ACHN
SR = tested on: SR
UACC-257 = tested on: UACC-257
T47D = tested on: T47D
OVCAR-4 = tested on: OVCAR-4
786-0 = tested on: 786-0
BT-549 = tested on: BT-549
IGROV-1 = tested on: IGROV-1
OVCAR-5 = tested on: OVCAR-5
COLO 205 = tested on: COLO 205
KM12 = tested on: KM12
MDA-MB-435 = tested on: MDA-MB-435
NCI/ADR-RES = tested on: NCI/ADR-RES
A498 = tested on: A498
SF-268 = tested on: SF-268
SK-MEL-5 = tested on: SK-MEL-5
DU-145 = tested on: DU-145
HCC 2998 = tested on: HCC 2998
EKVX = tested on: EKVX
RXF 393 = tested on: RXF 393
NCI-H23 = tested on: NCI-H23
SF-539 = tested on: SF-539
MDA-N = tested on: MDA-N
RPMI-8226 = tested on: RPMI-8226
CAKI-1 = tested on: CAKI-1
LOX IMVI = tested on: LOX IMVI
HL-60 = tested on: HL-60

N=C(N)NC(=N)Nc1ccc(S(N)(=O)=O)cc1
GI50 (SF-295): > 100 µM (inactive) | GI50 (U-251): > 100 µM (inactive) | GI50 (TK-10): > 100 µM (inactive) | GI50 (PC-3): > 100 µM (inactive) | GI50 (SK-MEL-2): > 100 µM (inactive) | GI50 (UACC-62): > 100 µM (inactive) | GI50 (HCT-116): > 100 µM (inactive) | GI50 (UO-31): > 100 µM (inactive) | GI50 (OVCAR-8): > 100 µM (inactive) | GI50 (CCRF-CEM): > 100 µM (inactive) | GI50 (HOP-62): > 100 µM (inactive) | GI50 (Hs-578T): > 100 µM (inactive) | GI50 (MOLT-4): > 100 µM (inactive) | GI50 (SN12C): > 100 µM (inactive) | GI50 (HT-29): > 100 µM (inactive) | GI50 (SK-OV-3): > 100 µM (inactive) | GI50 (HOP-92): > 100 µM (inactive) | GI50 (M14): > 100 µM (inactive) | GI50 (NCI-H460): > 100 µM (inactive) | GI50 (SK-MEL-28): > 100 µM (inactive) | GI50 (HCT-15): > 100 µM | GI50 (Malme-3M): > 100 µM (inactive) | GI50 (SW-620): > 100 µM (inactive) | GI50 (MDA-MB-231): > 100 µM (inactive) | GI50 (K562): > 100 µM (inactive) | GI50 (NCI-H522): > 100 µM (inactive) | GI50 (SNB-75): > 100 µM (inactive) | GI50 (MCF7): > 100 µM (inactive) | GI50 (OVCAR-3): > 100 µM (inactive) | GI50 (A549): > 100 µM (inactive) | GI50 (SNB-19): > 100 µM (inactive) | GI50 (NCI-H226): > 100 µM (inactive) | GI50 (ACHN): > 100 µM (inactive) | GI50 (SR): > 100 µM (inactive) | GI50 (UACC-257): > 100 µM (inactive) | GI50 (T47D): > 100 µM (inactive) | GI50 (OVCAR-4): > 100 µM (inactive) | GI50 (786-0): > 100 µM (inactive) | GI50 (BT-549): > 100 µM (inactive) | GI50 (IGROV-1): > 100 µM (inactive) | GI50 (OVCAR-5): > 100 µM (inactive) | GI50 (COLO 205): > 100 µM (inactive) | GI50 (KM12): > 100 µM (inactive) | GI50 (MDA-MB-435): > 100 µM (inactive) | GI50 (NCI/ADR-RES): > 100 µM (inactive) | GI50 (A498): > 100 µM (inactive) | GI50 (SF-268): > 100 µM (inactive) | GI50 (SK-MEL-5): > 100 µM (inactive) | GI50 (DU-145): > 100 µM (inactive) | GI50 (HCC 2998): 6.27 µM (inactive) | GI50 (EKVX): > 100 µM (inactive) | GI50 (RXF 393): > 100 µM (inactive) | GI50 (NCI-H23): > 100 µM (inactive) | GI50 (SF-539): > 100 µM (inactive) | GI50 (MDA-N): > 100 µM (inactive) | GI50 (RPMI-8226): > 100 µM (inactive) | GI50 (CAKI-1): > 100 µM (inactive) | GI50 (LOX IMVI): > 100 µM (inactive) | GI50 (HL-60): > 100 µM (inactive)

COc1cc2c3c(cc(Cl)nc3c1OC)C(O)(CC(C)=O)C(=O)N2 (stereo not drawn)
GI50 (SF-295): > 100 µM (inactive) | GI50 (U-251): 57.8 µM (inactive) | GI50 (TK-10): 20.2 µM (inactive) | GI50 (PC-3): 25.1 µM (inactive) | GI50 (SK-MEL-2): 20.3 µM (inactive) | GI50 (UACC-62): 16.6 µM (inactive) | GI50 (HCT-116): 17.3 µM (inactive) | GI50 (UO-31): 23.2 µM (inactive) | GI50 (OVCAR-8): 18.5 µM (inactive) | GI50 (CCRF-CEM): 9.18 µM (inactive) | GI50 (HOP-62): > 44.6 µM (inactive) | GI50 (Hs-578T): 40.3 µM (inactive) | GI50 (MOLT-4): 9.35 µM (inactive) | GI50 (SN12C): 21.7 µM (inactive) | GI50 (HT-29): > 45.7 µM (inactive) | GI50 (SK-OV-3): > 47.1 µM (inactive) | GI50 (HOP-92): 19.1 µM (inactive) | GI50 (M14): 18.9 µM (inactive) | GI50 (NCI-H460): 36 µM (inactive) | GI50 (SK-MEL-28): > 45.4 µM (inactive) | GI50 (HCT-15): > 43.4 µM | GI50 (Malme-3M): 15.9 µM (inactive) | GI50 (SW-620): 27.4 µM (inactive) | GI50 (MDA-MB-231): 17 µM (inactive) | GI50 (K562): 18.5 µM (inactive) | GI50 (NCI-H522): 8.97 µM (inactive) | GI50 (SNB-75): 38.6 µM (inactive) | GI50 (MCF7): 16 µM (inactive) | GI50 (OVCAR-3): 33 µM (inactive) | GI50 (A549): > 42.9 µM (inactive) | GI50 (SNB-19): > 40.3 µM (inactive) | GI50 (NCI-H226): > 42.3 µM (inactive) | GI50 (ACHN): 24.9 µM (inactive) | GI50 (SR): 19.3 µM (inactive) | GI50 (UACC-257): 8 µM (inactive) | GI50 (T47D): 3.2 µM (inactive) | GI50 (OVCAR-4): 17.8 µM (inactive) | GI50 (786-0): 17.1 µM (inactive) | GI50 (BT-549): 16.8 µM (inactive) | GI50 (IGROV-1): 19.1 µM (inactive) | GI50 (OVCAR-5): > 42.4 µM (inactive) | GI50 (COLO 205): 38.1 µM (inactive) | GI50 (KM12): > 45.5 µM (inactive) | GI50 (MDA-MB-435): 16.4 µM (inactive) | GI50 (NCI/ADR-RES): > 44.9 µM (inactive) | GI50 (A498): 18.3 µM (inactive) | GI50 (SF-268): 6.07 µM (inactive) | GI50 (SK-MEL-5): > 41 µM (inactive) | GI50 (DU-145): > 39.1 µM (inactive) | GI50 (HCC 2998): > 44 µM (inactive) | GI50 (EKVX): 16.2 µM (inactive) | GI50 (RXF 393): 16.3 µM (inactive) | GI50 (NCI-H23): 30.7 µM (inactive) | GI50 (SF-539): > 100 µM (inactive) | GI50 (MDA-N): 17.3 µM (inactive) | GI50 (RPMI-8226): 23.8 µM (inactive) | GI50 (CAKI-1): 22.1 µM (inactive) | GI50 (LOX IMVI): 16.3 µM (inactive) | GI50 (HL-60): 6.79 µM (inactive)
